Values quoted from earlier work as cited in patent US20100035992A1, “Methods and Compositions for Treating Inflammation and Inflammation-Related Pathologies” (priority 2008, published 2010).

Conditions: at 79° F.

water solubility: 34 % w/v
SMILES: CS(C)(=O)=O [MSM, methylsulfonylmethane]
